Our source for the TGI values is PubChem BioAssay (NCI).

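Values below derive from 48-hour exposures of cells grown in 96-well plates, with endpoints linearly interpolated between the two concentrations bracketing the appropriate inhibition level. The concentration for full growth arrest is given as TGI.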 Where a SMILES comes first, the peptide text is derived from it. [ ]: non-standard residue; d: D form. A value given as a limit tells only on which side of the number the result lay.

Some test systems named below: MALME-3M melanoma; UACC-257 melanoma; NCI-H23 lung; DMS 273 small cell lung; SK-MEL-28 melanoma; SK-OV-3 ovarian; LOX IMVI melanoma; M19-MEL melanoma; NCI-H522 lung; SNB-75 CNS; DU-145 prostate.
What all share (assay): NCI tumour cell line growth inhibition, 48 h

Regarding `O=C1Sc2ccccc2C(=O)N2CCSC12` (configuration not stated), the TGI in the experiment with MALME-3M melanoma, with UACC-257 melanoma, in the experiment with NCI-H23 lung, in the experiment on DMS 273 small cell lung, in the experiment on SK-MEL-28 melanoma and in the experiment with SK-OV-3 ovarian was over 100 µM throughout. For the same compound, the TGI with LOX IMVI melanoma and with M19-MEL melanoma was over 100 µM in each case.
`Cc1cc(C)[n+]2c(c1)C=CC2`: the TGI is 8.57 µM in the experiment on MALME-3M melanoma; over 100 µM with UACC-257 melanoma; 84.2 µM in the experiment on NCI-H23 lung; 4.24 µM in the experiment with DMS 273 small cell lung; over 100 µM in the experiment on SK-MEL-28 melanoma; 49.5 µM in the experiment with NCI-H522 lung. Besides, the TGI was 41.9 µM in the experiment on SNB-75 CNS, over 100 µM in the experiment on LOX IMVI melanoma and over 100 µM in the experiment on M19-MEL melanoma.
On to `COCC(C#N)NC1CC(OC2CC(O)(C(=O)CO)Cc3c(O)c4c(c(O)c32)C(=O)c2c(OC)cccc2C4=O)OC(C)C1O` (configuration not stated), for which the TGI in the experiment on MALME-3M melanoma came to 0.18 µM; in the experiment with UACC-257 melanoma, 0.368 µM; in the experiment with NCI-H23 lung, 0.682 µM; in the experiment on DMS 273 small cell lung, 0.602 µM; with SK-MEL-28 melanoma, 0.527 µM; in the experiment with NCI-H522 lung, 0.193 µM. The TGI is 0.373 µM with SNB-75 CNS, 10.6 µM with SK-OV-3 ovarian, 0.599 µM in the experiment with LOX IMVI melanoma and 0.22 µM in the experiment with M19-MEL melanoma.
For the compound `O=C1C(Cl)N(c2ccc([N+](=O)[O-])cc2)C1c1c[nH]c2ccccc12` (configuration not stated), the TGI in the experiment on MALME-3M melanoma, in the experiment with UACC-257 melanoma, with NCI-H23 lung, in the experiment with SK-MEL-28 melanoma, with NCI-H522 lung and with SNB-75 CNS was over 100 µM throughout. Besides, the TGI in the experiment on SK-OV-3 ovarian and with M19-MEL melanoma was over 100 µM in each case.
On to `CC(C)C[C@H](NC(=O)[C@H](CC(C)C)NC(=O)[C@@H](Cc1c[nH]c2ccccc12)NC(=O)[C@H](Cc1ccccc1)NC(=O)[C@@H](Cc1c[nH]c2ccccc12)NC(=O)[C@H](CCC(N)=O)NC(=O)[C@@H](CCC(N)=O)NC(=O)[C@@H]1CCCN1C(=O)[C@@H](CCCCN)NC(=O)[C@H]1CCCN1C(=O)[C@H](N)CCCN=C(N)N)C(N)=O` (H-[dR][dP][dK]P[dQ]Q[dW]F[dW]LL-NH2), for which the TGI is over 31.6 µM in the experiment on MALME-3M melanoma; over 100 µM in the experiment on UACC-257 melanoma; over 100 µM in the experiment with NCI-H23 lung; over 100 µM in the experiment with DMS 273 small cell lung; over 100 µM in the experiment with SK-MEL-28 melanoma; over 100 µM in the experiment with NCI-H522 lung. Further, the TGI in the experiment on SNB-75 CNS, in the experiment with SK-OV-3 ovarian, in the experiment on LOX IMVI melanoma and in the experiment with M19-MEL melanoma was over 100 µM throughout.
`O=S(=O)(O)c1cc(S(=O)(=O)O)c2cc(N=Nc3ccc(N=Nc4ccc(/C=C/c5ccc(N=[N+]([O-])c6ccc(/C=C/c7ccc(N=Nc8ccc(N=Nc9ccc%10cc(S(=O)(=O)O)cc(S(=O)(=O)O)c%10c9)cc8)cc7S(=O)(=O)O)c(S(=O)(=O)O)c6)cc5S(=O)(=O)O)c(S(=O)(=O)O)c4)cc3)ccc2c1`: the TGI with MALME-3M melanoma, with UACC-257 melanoma, in the experiment on NCI-H23 lung, in the experiment with DMS 273 small cell lung, in the experiment with SK-MEL-28 melanoma and in the experiment with NCI-H522 lung was over 100 µM each time. Also, the TGI in the experiment with SNB-75 CNS, with SK-OV-3 ovarian, in the experiment on LOX IMVI melanoma and with M19-MEL melanoma was over 100 µM each time.
On to `NC(=Nc1ccccc1)N/N=C/c1c[nH]c2ccccc12`, for which the TGI in the experiment with DU-145 prostate turned out to be 2.59 µM; with MALME-3M melanoma, 3.74 µM; in the experiment with UACC-257 melanoma, 12.2 µM; with NCI-H23 lung, 2.93 µM; in the experiment on DMS 273 small cell lung it was 13.8 µM; in the experiment on SK-MEL-28 melanoma it was 8.77 µM. Moreover, the TGI in the experiment with NCI-H522 lung was 0.306 µM; in the experiment with SNB-75 CNS, 5.56 µM; in the experiment on SK-OV-3 ovarian it was 4.14 µM; in the experiment with LOX IMVI melanoma, 8.92 µM.
For the compound `N=C1C=CC(=C(c2ccc(N)cc2)c2ccc(N)cc2)C=C1`, the TGI with DU-145 prostate came to 17.7 µM; with MALME-3M melanoma, 13.3 µM; with UACC-257 melanoma it was 18.1 µM; in the experiment on NCI-H23 lung, 16.3 µM; with SK-MEL-28 melanoma, 26.1 µM; with NCI-H522 lung, 12.8 µM. For the same compound, the TGI in the experiment with SNB-75 CNS stood at 11.5 µM; in the experiment on SK-OV-3 ovarian, 36.2 µM; with LOX IMVI melanoma it was 15.4 µM; with M19-MEL melanoma, 16.8 µM.
For the compound `Clc1ccc(C2SCc3nc4ccccc4n32)cc1` (configuration not stated), the TGI in the experiment on MALME-3M melanoma came to 36.7 µM; in the experiment on NCI-H23 lung, 48.3 µM; in the experiment with DMS 273 small cell lung, 36.2 µM; in the experiment on SK-MEL-28 melanoma it was 68.1 µM; with NCI-H522 lung, 44.4 µM; in the experiment on SNB-75 CNS, 24.9 µM. In addition, the results for the TGI in the experiment on SK-OV-3 ovarian, in the experiment with LOX IMVI melanoma and with M19-MEL melanoma were 69.9 µM, 40.6 µM and 54.3 µM, respectively.
On to `CCOP(=O)(OCC)C(Nc1ccc(Cl)cc1)c1ccc(F)cc1` (configuration not stated), for which the TGI came to 91.4 µM in the experiment with DU-145 prostate; 42.3 µM in the experiment on MALME-3M melanoma; 44 µM in the experiment with UACC-257 melanoma; 53.9 µM in the experiment with NCI-H23 lung; 41.7 µM in the experiment on SK-MEL-28 melanoma; 49.7 µM in the experiment on NCI-H522 lung. The TGI with SNB-75 CNS is 84.8 µM; in the experiment with SK-OV-3 ovarian it was over 100 µM; in the experiment with LOX IMVI melanoma, 29.1 µM.
As for `N=C(N)SCc1nc(-c2ccc(Cl)cc2)no1`, the TGI with DU-145 prostate is 63 µM; in the experiment on MALME-3M melanoma, 34.6 µM; with UACC-257 melanoma, over 100 µM; in the experiment with NCI-H23 lung, over 100 µM; with SK-MEL-28 melanoma it was 33 µM; in the experiment on NCI-H522 lung it was 25.1 µM. Further, the figures for the TGI in the experiment with SNB-75 CNS, with SK-OV-3 ovarian and in the experiment with LOX IMVI melanoma were 59.4 µM, over 100 µM and 31.2 µM, respectively.
